Residues, ends and D or L forms follow the SMILES beside them.
Key:
MDA-MB231 cells = assay: Saturation cell binding assay, MDA-MB231; parameters: species or system human; settings: biotin-labeled peptide 0-256 µM, 4 °C, 1 h
Description: (§1) Supplementary Information
(§2) Supplementary Materials and Methods
(§3) Saturation binding assays to determine the cellular binding affinities of peptides Cells (5 × 10^3 cells per well in a 96-well plate) were incubated with 1% bovine serum albumin (BSA) for 30 min and with different concentrations of biotin-labeled peptides (0, 2, 4, 8, 16, 32, 64, 128, and 256 µM) at 4 °C for 1 h. After washing, the cells were incubated with horseradish peroxidase-conjugated neutravidin (1:10,000 dilution; ThermoFisher Scientific, Waltham, MA) for 30 min at room temperature. Enzymatic activity was detected using a 3,3ʹ,5,5ʹ-tetramethylbenzidine substrate (ThermoFisher Scientific), and the reaction was stopped using 2 M sulfuric acid. The absorbance at 450 nm was measured in each well using a microplate reader (Tecan, Mannedorf, Switzerland). The KD values were then calculated using GraphPad Prism 6 software (GraphPad Inc., La Jolla, CA). […]
(§4) 10 µM biotin-labeled CD44v6-binding peptides at 4 °C for 1 h. […]
(§5) Scientific) for 30 min at room temperature. […]

MCF7 cells = assay: Saturation cell binding assay, MCF7; parameters: species or system human; settings: biotin-labeled peptide 0-256 µM, 4 °C, 1 h, CD44v6-low cells
Description: as §1, §2, §3, §4, §5

[1] = biological target: T1, recombinant human CD44v6-Fc protein (Homo sapiens, UniProt P16070); assay: ELISA of peptide binding to recombinant proteins; settings: 10 µM biotin-labeled peptide, 4 °C, 1 h
T1 sequence (P16070 386-428 limits assumed): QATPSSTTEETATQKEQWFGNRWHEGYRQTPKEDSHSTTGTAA
Description: as §1
Supplementary Materials and Methods […]
peroxidase-conjugated neutravidin (1:10,000 dilution; ThermoFisher Scientific, Waltham, MA) for 30 min at room temperature. Enzymatic activity was detected using a 3,3ʹ,5,5ʹ-tetramethylbenzidine substrate (ThermoFisher Scientific), and the reaction was stopped using 2 M […]
sulfuric acid. […]
Enzyme-linked immunosorbent assay (ELISA) of peptide binding to recombinant proteins ELISA plates were coated overnight with 100 μL of recombinant human CD44v6-Fc and CD44-Fc proteins (R&D Systems, Minneapolis, MN) at a concentration of 1 μg/mL in Tris-buffered saline with 0.05% Tween-20. BSA was used as a control. After coating, plates were incubated with 10 µM biotin-labeled CD44v6-binding peptides at 4 °C for 1 h. After washing, the cells were incubated with horseradish peroxidase-conjugated neutravidin (1:10,000 dilution; ThermoFisher Scientific) for 30 min at room temperature. Detection of enzymatic activity and measurement of absorbance was performed as described above. Relative binding was calculated based on the absorbance, in which the absorbance of BSA was set to 1.

[2] = system: CD44v6-knockdown MDA-MB231 cells; assay: Peptide binding to CD44v6-knockdown cells (flow cytometry); type: cell-based, human; settings: FITC-labeled peptide 25 µM, MDA-MB231, siRNA knockdown 24 h
Description: Cells (1 × 10^5 cells) were harvested and suspended in culture medium containing 1% BSA for 1 h, followed by an incubation with FITC-labeled peptides (25 µM) at 4 °C for 1 h. After washing, the cells were analyzed using a FACSCalibur flow cytometer (BD, Franklin Lakes, NJ). For competition assays, cells were incubated with 5 µg/mL of an anti-human CD44v6 mouse monoclonal antibody (clone no. VFF-18, 1:100 dilution; Abcam, Cambridge, MA) and anti-human CD44 monoclonal antibody (clone no. 156-3C11, 1:100 dilution; ThermoFisher Scientific) for 1 h to compete with peptide binding, followed by an incubation with FITC-labeled peptides (10 µM) before analysis on a flow cytometer (BD). In another set of assays, cells were incubated with peptides (50 µM) for 1 h to compete with antibody binding, followed by an incubation with 5 µg/mL of the anti-human CD44v6 mouse monoclonal antibody for 1 h, The cells were then incubated with an Alexa Fluor 488-labeled goat anti-mouse IgG secondary antibody (Merck) before analysis on a flow cytometer (BD).
CD44v6 gene expression was knocked down using CD44v6 small interfering RNAs (siRNAs) as previously described. Two CD44v6-specific siRNAs (v6-1: 5ʹ-AGU ACA ACG GAA ATT-3ʹ and v6-2: 5ʹ-GGA UAU CGC CAAACA CCC ATT-3ʹ) were synthesized by Bioneer (Daejeon, Korea). Control siRNA (5ʹ-CUA CGC CAA UUU CGU (dTdT)-3ʹ) were purchased from Bioneer. […]

[3] = system: c-Met and Erk phosphorylation in MDA-MB231 cells; assay: Western blotting of HGF-induced c-Met and Erk phosphorylation, MDA-MB231; type: cell-based, human; settings: peptide 20 µM 10 min, HGF 25 ng/mL 10 min
Description: To examine c-Met and Erk phosphorylation, MDA-MB231 cells were serum-starved for 24 h, pre-treated with CD44v6-binding peptides (20 µM) for 10 min, and incubated with 25 ng/mL HGF for 10 min. After the incubation, the cell lysates were subjected to Western blotting analyses using an anti-phospho-Met rabbit monoclonal antibody (clone no. D26; Cell Signaling Technology), anti-Met mouse monoclonal antibody (clone no. 25H2, 1:1000 dilution; Cell Signaling Technology), anti-phospho-Erk1/2 rabbit monoclonal antibody (clone no. 197G2; Cell Signaling Technology), and anti-ERK1 rabbit polyclonal antibody (1:1000 dilution; Santa Cruz Biotechnology). The labeled bands on immunoblots were detected using enhanced chemiluminescence reagents (ThermoFisher Scientific).

## CC[C@H](C)[C@H](NC(=O)[C@@H](NC(=O)[C@H](CC(N)=O)NC(=O)[C@H](CC(C)C)NC(=O)[C@H](CC(N)=O)NC(=O)[C@@H](N)CS)[C@@H](C)O)C(=O)N[C@@H](CC(=O)O)C(=O)N[C@H](C(=O)N[C@@H](CS)C(=O)O)[C@@H](C)O [NLN] (H-CNLNTIDTC-OH; N-terminus and C-terminus assumed)
MDA-MB231 cells
  Kd: 12 ± 5 µM
MCF7 cells
  Kd: 300 ± 250 µM
[1]
  binding to recombinant CD44v6-Fc protein coated on plates compared with CD44-Fc and albumin: preferentially bound
[2]
  decrease of cellular binding to CD44v6-knockdown cells compared with wild-type cells: 6-7 fold
[3]
  HGF-induced phosphorylation of c-Met and Erk, MDA-MB231: inhibited

## CC(C)C[C@H](NC(=O)[C@H](CCC(N)=O)NC(=O)[C@H](Cc1c[nH]c2ccccc12)NC(=O)[C@H](CCC(=O)O)NC(=O)[C@H](CC(N)=O)NC(=O)[C@@H](N)CS)C(=O)N[C@@H](CCCCN)C(=O)N[C@@H](CO)C(=O)N[C@@H](CS)C(=O)O [NEW] (H-CNEWQLKSC-OH; N-terminus and C-terminus assumed)
MDA-MB231 cells
  Kd: 18 ± 6 µM
MCF7 cells
  Kd: 122 ± 115 µM
[1]
  binding to recombinant CD44v6-Fc protein coated on plates compared with CD44-Fc and albumin: preferentially bound
[2]
  decrease of cellular binding to CD44v6-knockdown cells compared with wild-type cells: 6-7 fold
[3]
  HGF-induced phosphorylation of c-Met and Erk, MDA-MB231: inhibited
